{
  "source": "paper PMC6704710",
  "about": "“Preclinical evaluation of 3D185, a novel potent inhibitor of FGFR1/2/3 and CSF-1R, in FGFR-dependent and macrophage-dominant cancer models” (Journal of Experimental & Clinical Cancer Research : CR, 2019)",
  "experiment_in_all_cases": "Eurofins kinase panel",
  "assay_type_in_all_cases": "biochemical",
  "key": {"CK1(y)": {"system": "CK1(y)"}, "EphA5(h)": {"molecular_target": "T1, EphA5(h) (Homo sapiens, UniProt P54756)", "T1 construct": "purchased Eurofins (KinaseProfiler)", "T1 sequence (P54756 25-1037)": "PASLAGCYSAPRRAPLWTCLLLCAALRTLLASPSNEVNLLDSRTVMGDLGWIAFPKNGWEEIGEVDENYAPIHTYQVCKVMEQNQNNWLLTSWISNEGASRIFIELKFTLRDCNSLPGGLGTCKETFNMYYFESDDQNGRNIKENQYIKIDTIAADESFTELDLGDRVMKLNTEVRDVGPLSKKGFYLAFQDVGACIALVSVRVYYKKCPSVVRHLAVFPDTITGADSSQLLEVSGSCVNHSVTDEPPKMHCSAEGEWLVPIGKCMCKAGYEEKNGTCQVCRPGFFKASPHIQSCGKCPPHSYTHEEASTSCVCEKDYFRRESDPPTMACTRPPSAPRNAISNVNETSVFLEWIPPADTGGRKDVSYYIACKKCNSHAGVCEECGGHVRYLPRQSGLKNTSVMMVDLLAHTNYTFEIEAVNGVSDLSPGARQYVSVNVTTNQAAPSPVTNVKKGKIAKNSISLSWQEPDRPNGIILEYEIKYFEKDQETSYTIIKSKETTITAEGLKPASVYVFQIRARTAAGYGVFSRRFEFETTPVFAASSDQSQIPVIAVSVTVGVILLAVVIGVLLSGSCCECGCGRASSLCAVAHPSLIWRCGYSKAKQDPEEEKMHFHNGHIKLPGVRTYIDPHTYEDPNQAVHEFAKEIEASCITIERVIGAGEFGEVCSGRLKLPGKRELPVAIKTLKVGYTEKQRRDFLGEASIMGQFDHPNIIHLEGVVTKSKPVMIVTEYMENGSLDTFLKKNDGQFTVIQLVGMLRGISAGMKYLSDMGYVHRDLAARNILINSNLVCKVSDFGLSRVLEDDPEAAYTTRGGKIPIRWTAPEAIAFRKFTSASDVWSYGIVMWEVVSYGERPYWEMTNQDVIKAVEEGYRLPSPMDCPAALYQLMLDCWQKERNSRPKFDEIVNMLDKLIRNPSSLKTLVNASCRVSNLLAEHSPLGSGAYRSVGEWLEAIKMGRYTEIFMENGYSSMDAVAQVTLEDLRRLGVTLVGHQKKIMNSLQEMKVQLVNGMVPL", "conditions": "read-out: Inhibition rate (%)"}, "MuSK(h)": {"molecular_target": "T2, MuSK(h) (Homo sapiens, UniProt O15146)", "T2 construct": "purchased Eurofins (KinaseProfiler)", "T2 sequence (O15146 24-869)": "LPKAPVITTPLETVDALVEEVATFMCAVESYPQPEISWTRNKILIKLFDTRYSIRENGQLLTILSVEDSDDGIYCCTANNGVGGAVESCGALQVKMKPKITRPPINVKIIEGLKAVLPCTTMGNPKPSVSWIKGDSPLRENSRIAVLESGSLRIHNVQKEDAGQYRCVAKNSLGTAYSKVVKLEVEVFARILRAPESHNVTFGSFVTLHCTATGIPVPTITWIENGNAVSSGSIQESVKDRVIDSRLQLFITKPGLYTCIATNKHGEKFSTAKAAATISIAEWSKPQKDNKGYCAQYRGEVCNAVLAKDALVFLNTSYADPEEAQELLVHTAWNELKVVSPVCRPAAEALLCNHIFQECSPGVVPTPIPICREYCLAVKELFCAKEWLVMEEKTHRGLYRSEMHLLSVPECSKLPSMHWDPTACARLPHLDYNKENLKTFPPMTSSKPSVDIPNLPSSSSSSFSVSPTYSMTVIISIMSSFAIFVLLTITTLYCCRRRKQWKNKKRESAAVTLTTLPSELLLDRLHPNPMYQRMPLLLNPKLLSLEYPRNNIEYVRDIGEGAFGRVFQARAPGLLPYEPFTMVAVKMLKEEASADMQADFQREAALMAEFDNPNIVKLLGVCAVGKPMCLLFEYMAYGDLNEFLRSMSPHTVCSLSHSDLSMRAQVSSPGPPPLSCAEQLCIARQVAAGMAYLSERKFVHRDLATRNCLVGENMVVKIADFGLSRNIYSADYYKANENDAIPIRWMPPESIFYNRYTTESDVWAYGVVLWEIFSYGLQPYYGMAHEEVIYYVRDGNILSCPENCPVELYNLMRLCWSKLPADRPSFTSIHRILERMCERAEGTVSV", "conditions": "read-out: Inhibition rate (%)"}, "PIP4K2α(h)": {"molecular_target": "T3, PIP4K2α(h) (Homo sapiens, UniProt P48426)", "T3 construct": "purchased Eurofins (KinaseProfiler)", "T3 sequence (P48426 1-406)": "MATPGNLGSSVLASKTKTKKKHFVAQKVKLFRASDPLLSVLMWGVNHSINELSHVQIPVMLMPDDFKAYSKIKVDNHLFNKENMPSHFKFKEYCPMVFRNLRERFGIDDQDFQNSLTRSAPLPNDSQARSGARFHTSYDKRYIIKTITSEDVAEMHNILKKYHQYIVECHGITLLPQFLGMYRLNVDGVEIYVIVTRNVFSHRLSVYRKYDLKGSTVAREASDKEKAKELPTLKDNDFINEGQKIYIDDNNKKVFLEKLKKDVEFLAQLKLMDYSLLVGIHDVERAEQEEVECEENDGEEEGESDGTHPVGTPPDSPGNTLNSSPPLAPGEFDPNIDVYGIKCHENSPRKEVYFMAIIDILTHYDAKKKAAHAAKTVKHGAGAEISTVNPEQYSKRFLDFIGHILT", "conditions": "read-out: Inhibition rate (%)"}, "TGFBR1(h)": {"molecular_target": "T4, TGFBR1(h) (Homo sapiens, UniProt P36897)", "T4 construct": "purchased Eurofins (KinaseProfiler)", "T4 sequence (P36897 34-503)": "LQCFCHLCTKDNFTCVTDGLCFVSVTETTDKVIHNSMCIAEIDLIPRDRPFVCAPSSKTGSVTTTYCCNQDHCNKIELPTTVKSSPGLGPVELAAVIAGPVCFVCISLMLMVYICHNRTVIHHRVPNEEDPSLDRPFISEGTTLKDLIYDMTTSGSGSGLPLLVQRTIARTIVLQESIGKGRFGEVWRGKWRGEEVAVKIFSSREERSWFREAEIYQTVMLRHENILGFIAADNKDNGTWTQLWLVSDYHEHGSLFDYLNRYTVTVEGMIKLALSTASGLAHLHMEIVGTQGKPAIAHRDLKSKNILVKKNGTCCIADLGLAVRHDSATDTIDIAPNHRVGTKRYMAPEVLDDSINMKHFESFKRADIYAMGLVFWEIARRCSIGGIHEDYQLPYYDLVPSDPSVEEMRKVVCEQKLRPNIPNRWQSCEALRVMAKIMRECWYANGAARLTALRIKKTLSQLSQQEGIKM", "conditions": "read-out: Inhibition rate (%)"}, "cKit(D816V)(h)": {"molecular_target": "T5, cKit(D816V)(h) (Homo sapiens, UniProt P10721, D816V)", "T5 construct": "purchased Eurofins (KinaseProfiler)", "T5 sequence (P10721 26-976 D816V)": "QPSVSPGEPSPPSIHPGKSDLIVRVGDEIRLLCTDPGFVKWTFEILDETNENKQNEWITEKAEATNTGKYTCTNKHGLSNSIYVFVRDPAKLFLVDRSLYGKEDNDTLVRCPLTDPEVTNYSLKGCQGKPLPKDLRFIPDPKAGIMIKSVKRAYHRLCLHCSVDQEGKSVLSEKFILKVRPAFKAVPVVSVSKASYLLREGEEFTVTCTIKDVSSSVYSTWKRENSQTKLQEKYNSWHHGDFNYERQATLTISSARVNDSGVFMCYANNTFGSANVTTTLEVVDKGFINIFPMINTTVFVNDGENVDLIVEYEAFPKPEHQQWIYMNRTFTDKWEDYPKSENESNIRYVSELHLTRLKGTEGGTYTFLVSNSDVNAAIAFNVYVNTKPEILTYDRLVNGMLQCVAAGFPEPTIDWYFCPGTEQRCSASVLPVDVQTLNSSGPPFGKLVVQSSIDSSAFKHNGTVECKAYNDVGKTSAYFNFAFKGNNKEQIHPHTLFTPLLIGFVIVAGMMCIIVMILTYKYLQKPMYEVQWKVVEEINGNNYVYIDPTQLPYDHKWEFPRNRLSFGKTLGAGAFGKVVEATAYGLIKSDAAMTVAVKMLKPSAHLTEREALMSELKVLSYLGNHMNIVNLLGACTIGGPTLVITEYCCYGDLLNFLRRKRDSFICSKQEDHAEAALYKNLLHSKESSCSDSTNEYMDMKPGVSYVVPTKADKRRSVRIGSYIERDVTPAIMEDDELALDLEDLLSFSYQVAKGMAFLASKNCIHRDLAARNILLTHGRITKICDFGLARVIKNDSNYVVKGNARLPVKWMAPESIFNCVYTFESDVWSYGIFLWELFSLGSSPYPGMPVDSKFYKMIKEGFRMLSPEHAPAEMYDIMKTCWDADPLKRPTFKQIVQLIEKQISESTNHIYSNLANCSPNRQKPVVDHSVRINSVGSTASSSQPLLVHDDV", "conditions": "read-out: Inhibition rate (%)"}},
  "data": [
    {"smiles": "COc1cc(OC)c(Cl)c(-c2ccc3c(NC(=O)c4ccc(N5CCNC(C)(C)C5)cc4)n[nH]c3n2)c1Cl", "note": "[3D185]", "values": [
      {"measurement": "Inhibition rate (%)", "setting": "CK1(y); 10 nM", "value": -1, "unit": "%"},
      {"measurement": "Inhibition rate (%)", "setting": "CK1(y); 100 nM", "value": 0, "unit": "%"},
      {"measurement": "Inhibition rate (%)", "setting": "CK1(y); 1000 nM", "value": 2, "unit": "%"},
      {"measurement": "inhibition at 0.01 µM", "setting": "EphA5(h); 10 nM", "value": 11, "unit": "%"},
      {"measurement": "inhibition at 0.1 µM", "setting": "EphA5(h); 100 nM", "value": 10, "unit": "%"},
      {"measurement": "inhibition at 1 µM", "setting": "EphA5(h); 1000 nM", "value": 13, "unit": "%"},
      {"measurement": "inhibition at 0.01 µM", "setting": "MuSK(h); 10 nM", "value": 2, "unit": "%"},
      {"measurement": "inhibition at 0.1 µM", "setting": "MuSK(h); 100 nM", "value": 7, "unit": "%"},
      {"measurement": "inhibition at 1 µM", "setting": "MuSK(h); 1000 nM", "value": 47, "unit": "%"},
      {"measurement": "inhibition at 0.01 µM", "setting": "PIP4K2α(h); 10 nM", "value": 1, "unit": "%"},
      {"measurement": "inhibition at 0.1 µM", "setting": "PIP4K2α(h); 100 nM", "value": -2, "unit": "%"},
      {"measurement": "inhibition at 1 µM", "setting": "PIP4K2α(h); 1000 nM", "value": 4, "unit": "%"},
      {"measurement": "inhibition at 0.01 µM", "setting": "TGFBR1(h); 10 nM", "value": -15, "unit": "%"},
      {"measurement": "inhibition at 0.1 µM", "setting": "TGFBR1(h); 100 nM", "value": -19, "unit": "%"},
      {"measurement": "inhibition at 1 µM", "setting": "TGFBR1(h); 1000 nM", "value": -17, "unit": "%"},
      {"measurement": "inhibition at 0.01 µM", "setting": "cKit(D816V)(h); 10 nM", "value": -7, "unit": "%"},
      {"measurement": "inhibition at 0.1 µM", "setting": "cKit(D816V)(h); 100 nM", "value": 1, "unit": "%"},
      {"measurement": "inhibition at 1 µM", "setting": "cKit(D816V)(h); 1000 nM", "value": 3, "unit": "%"}
    ]}
  ]
}
